In patent US20230365899A1, “COMPOSITIONS COMPRISING BLEACHING CATALYST, MANUFACTURING PROCESS THEREOF, AND BLEACHING AND CLEANING AGENT COMPRISING SAME” (WEYLCHEM PERFORMANCE PRODUCTS GMBH, priority 2020, published 2023):

Assays:
[1] = Reference granulation: stability of catalyst/PVOH mixture in water and on fluidised bed drying; format: physicochemical
Protocol: Similar to the process described above for granules 1-7, an aqueous solution of [Mn2(μ-O)3(Me3TACN)2](PF6)2·H2O in water and PVOH were mixed together with the other components to make the granule (corn starch and CaSO4). As the solubility of [Mn2(μ-O)3(Me3TACN)2](PF6)2·H2O in water is relatively low (1.08 wt-% in water at 20° C.—see WO2006/125517), a large amount of water needed to be added to obtain a mixture that has enough of the [Mn2(μ-O)3(Me3TACN)2](PF6)2·H2O catalyst to yield a granule comprising 2 wt-% of [Mn2(μ-O)3(Me3TACN)2](PF6)2·H2O (this would equate to 1.85 L of the aqueous solution of [Mn2(μ-O)3(Me3TACN)2](PF6)2·H2O following the same amounts of chemicals as described in the examples above).
Second observation was that the mixture of the [Mn2(μ-O)3(Me3TACN)2](PF6)2·H2O and PVOH in water was not stable.

[2] = BC-1 (tea stain on cotton) bleaching; conditions: pH 11.5, 1 g/L sodium percarbonate, 40° C., 30 min, Table 3
Protocol: BC-1 (tea stain on cotton) bleaching experiments were carried similarly as described in WO2014/202954. All bleaching experiments were done in duplication.
BC-1 (tea stain on cotton) bleaching was assessed at pH 11.5 in an aqueous solution containing 1 g/L nonionic formulation (Lutensol A07), 0, 1 and 2 μM [Mn2(μ-O)2(μ-CH3COO)(Me4DTNE)]Cl2), 1 g/L sodium percarbonate at 40° C. for 30 min (reference test).
Similarly, the bleaching activity of granule 9 was assessed using the same protocol, except for dissolving granule 9 in demineralised water yielding the same concentrations of catalyst as used in the reference test.

[3] = cited from earlier work

CN1CCN(C)CCN(C)CC1.CN1CCN(C)CCN(C)CC1.O=S(=O)([O-])[O-].[Mn+4].[Mn+4].[O-2].[O-2].[O-2] [MnTACNSO4, [Mn2(μ-O)3(Me3TACN)2]SO4]
time the mixture of catalyst and PVOH in solution remained stable ([1]; room temperature): at least 4 days

CC(=O)[O-].CN1CCN(C)CCN(CCN2CCN(C)CCN(C)CC2)CC1.[Cl-].[Cl-].[Mn+3].[Mn+4].[O-2].[O-2] [[Mn2(μ-O)2(μ-CH3COO)(Me4DTNE)]Cl2]
ΔR* BC-1 bleaching ([2]; 1.0 μM catalyst): 25.2 (0.1)
ΔR* BC-1 bleaching ([2]; 2.0 μM catalyst): 26.3 (0.1)

CN1CCN(C)CCN(C)CC1.CN1CCN(C)CCN(C)CC1.F[P-](F)(F)(F)(F)F.F[P-](F)(F)(F)(F)F.O.[Mn+4].[Mn+4].[O-2].[O-2].[O-2] [[Mn2(μ-O)3(Me3TACN)2](PF6)2·H2O, [Mn2(μ-O)3(Me3-TACN)2](PF6)2·H2O]
water solubility ([3]; at 20° C.): 10.8 mg/mL
solubility in water ([3]; in water at 20° C., see WO2006/125517): 1.08 wt-%
appearance after fluidised bed drying (catalyst decomposition) ([1]; granulation from dilute aqueous solution with PVOH, corn starch, CaSO4): dark brown granules
stability of mixture of catalyst and PVOH in water ([1]; room temperature): not stable
